Data from the supplement of paper PMC11061612.

Assays:
Experiment in all cases: Bliss excess, mean over the matrix (fraction); higher = more synergy
[1] = system: L-363 (Plasma Cell Myeloma)
In short: (§1)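 Bliss excess equals the observed combination effect minus the expected value EA + EB − EA·EB, where EA and EB are the effects of each agent alone. Combination Emax is the second-highest inhibition within the matrix. Inhibition was scaled from CellTiter-Glo 2.0 luminescence, with 0 set by vehicle wells and 1 by blank wells, after 72 hours of two-drug dosing of cells plated in 1536-well plates.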

[2] = system: COR-L105 (Lung Adenocarcinoma)
In short: as §1

[3] = system: OVKATE (Ovarian Carcinoma)
In short: as §1

[4] = system: Daudi (Burkitt's Lymphoma)
In short: as §1

[5] = system: TK (B-Cell Non-Hodgkin's Lymphoma)
In short: as §1

A375 (Melanoma) = system: A375 (Melanoma)
In short: as §1

[6] = system: MRK-nu-1 (Breast Carcinoma)
In short: as §1

[7] = system: C2BBe1 (Colorectal Carcinoma)
In short: as §1

[8] = system: SBC-5 (Small Cell Lung Carcinoma)
In short: as §1

SK-N-DZ (Neuroblastoma) = system: SK-N-DZ (Neuroblastoma)
In short: as §1

[9] = system: GRANTA-519 (B-Cell Non-Hodgkin's Lymphoma)
In short: as §1

[10] = system: SW1463 (Colorectal Carcinoma)
In short: as §1

[11] = system: OCI-M1 (Acute Myeloid Leukemia)
In short: as §1

[12] = system: MDA-MB-175-VII (Breast Carcinoma)
In short: as §1

[13] = system: HT-1197 (Bladder Carcinoma)
In short: as §1

[14] = system: NCI-H1048 (Small Cell Lung Carcinoma)
In short: as §1

[15] = system: IGROV-1 (Ovarian Carcinoma)
In short: as §1

[16] = system: NCI-H1944 (Lung Adenocarcinoma)
In short: as §1

[17] = system: NCI-H2170 (Squamous Cell Lung Carcinoma)
In short: as §1

C32 (Melanoma) = system: C32 (Melanoma)
In short: as §1

Compound | Bliss excess [1] | Bliss excess [2] | Bliss excess [3] | Bliss excess [4] | Bliss excess [5] | Bliss excess (A375 (Melanoma)) | Bliss excess [6] | Bliss excess [7] | Bliss excess [8] | Bliss excess (SK-N-DZ (Neuroblastoma)) | Bliss excess [9] | Bliss excess [10] | Bliss excess [11] | Bliss excess [12] | Bliss excess [13] | Bliss excess [14] | Bliss excess [15] | Bliss excess [16] | Bliss excess [17] | Bliss excess (C32 (Melanoma))
CN(CCO)CC[C@H](CSc1ccccc1)Nc1ccc(S(=O)(=O)NC(=O)c2ccc(N3CCC([C@@H](O)c4ccccc4-c4ccc(Cl)cc4)CC3)cc2)cc1S(=O)(=O)C(F)(F)F [AZD4320] + C[C@@H](Nc1cc(F)cc(F)c1)c1cc(C(=O)N(C)C)cc2c(=O)cc(N3CCOCC3)oc12 [AZD8186] (first compound max 1 µM, 7x7, partner max 3 µM) | 0.0753 | -0.0279 | -0.0277 | 0.0555 | 0.0312 | 0 | -0.0216 | 0.0231 | 0.0591 | -0.0302 | 0.0128 | -0.0706 | 0.0278 | 0.0271 | 0.0598 | 0.0388 | 0.042 | -0.0426 | 0.0284 | -0.0046
CN(CCO)CC[C@H](CSc1ccccc1)Nc1ccc(S(=O)(=O)NC(=O)c2ccc(N3CCC([C@@H](O)c4ccccc4-c4ccc(Cl)cc4)CC3)cc2)cc1S(=O)(=O)C(F)(F)F [AZD4320] + Cn1cnc2c(F)c(Nc3ccc(Br)cc3Cl)c(C(=O)NOCCO)cc21 [Selumetinib] (first compound max 1 µM, 7x7, partner max 3 µM) | 0.0311 | 0.0181 | -0.0247 | 0.0037 | -0.032 | -0.0112 | -0.0013 | 0.0082 | 0.0547 | -0.0273 | 0.0155 | 0.0106 | 0.0503 | 0.0188 | 0.0079 | 0.0198 | 0.0542 | 0.0427 | -0.0497 | 0.0196
COc1nnc2ccc(N3CCC(c4ccc(OCCN5CCN(C)C(=O)[C@H]5C)cc4)CC3)nn12 [AZD5153] + C=CCn1c(=O)c2cnc(Nc3ccc(N4CCN(C)CC4)cc3)nc2n1-c1cccc(C(C)(C)O)n1 [AZD1775] (first compound max 1 µM, partner max 1 µM) | -0.0546 | -0.0063 | -0.0373 | -0.0642 | -0.0554 | -0.0212 | -0.0354 | -0.0724 | -0.015 | -0.0084 | -0.0227 | -0.101 | -0.0449 | -0.0255 | -0.0045 | -0.0823 | -0.0858 | 0.0333 | 0.06 | -0.0426
COc1nnc2ccc(N3CCC(c4ccc(OCCN5CCN(C)C(=O)[C@H]5C)cc4)CC3)nn12 [AZD5153] + CC1(C)CCC(CN2CCN(c3ccc(C(=O)NS(=O)(=O)c4ccc(NCC5CCOCC5)c([N+](=O)[O-])c4)c(Oc4cnc5[nH]ccc5c4)c3)CC2)=C(c2ccc(Cl)cc2)C1 [Venetoclax] (first compound max 1 µM, 7x7, partner max 1 µM) | -0.101 | -0.0006 | -0.0037 | -0.0458 | 0.0193 | -0.057 | -0.0537 | -0.0234 | -0.0579 | 0.0059 | 0.0237 | -0.058 | -0.062 | 0.0346 | -0.0708 | 0.0165 | -0.0416 | -0.0824 | -0.0329 | -0.0383
COc1nnc2ccc(N3CCC(c4ccc(OCCN5CCN(C)C(=O)[C@H]5C)cc4)CC3)nn12 [AZD5153] + CCN(CCO)CCCOc1ccc2c(Nc3cc(CC(=O)Nc4cccc(F)c4)[nH]n3)ncnc2c1 [AZD2811] (first compound max 1 µM, 7x7, partner max 1 µM) | -0.0259 | -0.0092 | -0.0668 | 0.0303 | 0.0124 | -0.0295 | 0.0096 | -0.0364 | -0.0286 | -0.0722 | 0.0771 | -0.0452 | 0.06 | 0.0618 | -0.0034 | -0.042 | -0.0574 | -0.0185 | 0.0103 | 0.0199
COc1nnc2ccc(N3CCC(c4ccc(OCCN5CCN(C)C(=O)[C@H]5C)cc4)CC3)nn12 [AZD5153] + C[C@@H]1COCCN1C2=NC(=NC(=C2)C3(CC3)[S@](=N)(=O)C)C4=C5C=CNC5=NC=C4 [AZD6738] (first compound max 1 µM, 7x7, partner max 10 µM) | -0.0453 | -0.0092 | -0.0027 | 0.0365 | 0.0034 | 0.0552 | -0.0072 | -0.0066 | -0.0151 | 0.0472 | 0.0096 | -0.074 | -0.0165 | 0.0118 | -0.0082 | 0.029 | 0.0079 | 0.0234 | 0.0964 | 0.0069
COc1nnc2ccc(N3CCC(c4ccc(OCCN5CCN(C)C(=O)[C@H]5C)cc4)CC3)nn12 [AZD5153] + Cc1c2c(nn1C)CSCc1cc(n(C)n1)CSc1cc(c3ccccc3c1)OCCCc1c(C(=O)O)n(C)c3c-2c(Cl)ccc13 [AZD5991] (first compound max 1 µM, 7x7, partner max 1 µM) | -0.007 | -0.0134 | -0.0209 | 0.0407 | -0.0019 | -0.0215 | 0.0346 | -0.041 | -0.0062 | -0.0117 | -0.0164 | -0.0631 | -0.018 | -0.0015 | 0.0698 | 0.0059 | -0.0069 | -0.0461 | -0.0283 | 0.142
